Results taken from ChEMBL document CHEMBL3400053, “trans-3,4-Disubstituted pyrrolidines as inhibitors of the human aspartyl protease renin. Part II: prime site exploration using an oxygen linker” (Bioorg Med Chem Lett, 2015).

Columns and labels:
Renin [1] = biological target: T1, Renin (Homo sapiens, UniProt P00797); assay: Inhibition of human recombinant renin by TR-FRET assay
T1 sequence (P00797 whole entry): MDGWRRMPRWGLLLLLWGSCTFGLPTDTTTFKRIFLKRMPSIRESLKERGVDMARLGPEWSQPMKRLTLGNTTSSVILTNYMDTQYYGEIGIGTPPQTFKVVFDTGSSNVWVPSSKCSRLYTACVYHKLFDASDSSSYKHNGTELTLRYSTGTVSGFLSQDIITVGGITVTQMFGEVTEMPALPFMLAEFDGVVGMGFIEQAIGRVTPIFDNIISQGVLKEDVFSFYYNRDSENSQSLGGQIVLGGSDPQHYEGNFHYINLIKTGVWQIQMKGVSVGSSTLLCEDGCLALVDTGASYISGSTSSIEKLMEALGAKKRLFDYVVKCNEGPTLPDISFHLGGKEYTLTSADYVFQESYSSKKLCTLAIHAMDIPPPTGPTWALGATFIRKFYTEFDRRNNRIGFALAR

Renin [2] = biological target: T1, Renin; assay: Inhibition of human recombinant renin in presence of plasma by TR-FRET assay
[3] = biological target: T2, Alpha-2B adrenergic receptor (Homo sapiens, UniProt P18089); assay: Inhibition of alpha-adrenoceptor 2B (unknown origin)
T2 sequence (P18089 whole entry): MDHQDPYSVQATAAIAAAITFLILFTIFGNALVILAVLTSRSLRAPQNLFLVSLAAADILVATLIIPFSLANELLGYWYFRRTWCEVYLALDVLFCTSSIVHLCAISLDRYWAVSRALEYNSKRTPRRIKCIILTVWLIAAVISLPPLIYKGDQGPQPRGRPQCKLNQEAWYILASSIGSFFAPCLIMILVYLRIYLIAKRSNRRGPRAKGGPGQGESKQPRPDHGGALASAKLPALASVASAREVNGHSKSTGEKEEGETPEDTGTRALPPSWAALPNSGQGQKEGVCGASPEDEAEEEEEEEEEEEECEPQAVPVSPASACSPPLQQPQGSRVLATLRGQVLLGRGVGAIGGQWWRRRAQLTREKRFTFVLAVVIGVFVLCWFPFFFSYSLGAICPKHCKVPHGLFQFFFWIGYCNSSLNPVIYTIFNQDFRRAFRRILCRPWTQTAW

Gastricsin = biological target: T3, Gastricsin (Homo sapiens, UniProt P20142); assay: Inhibition of pepsin C (unknown origin)
T3 sequence (P20142 whole entry): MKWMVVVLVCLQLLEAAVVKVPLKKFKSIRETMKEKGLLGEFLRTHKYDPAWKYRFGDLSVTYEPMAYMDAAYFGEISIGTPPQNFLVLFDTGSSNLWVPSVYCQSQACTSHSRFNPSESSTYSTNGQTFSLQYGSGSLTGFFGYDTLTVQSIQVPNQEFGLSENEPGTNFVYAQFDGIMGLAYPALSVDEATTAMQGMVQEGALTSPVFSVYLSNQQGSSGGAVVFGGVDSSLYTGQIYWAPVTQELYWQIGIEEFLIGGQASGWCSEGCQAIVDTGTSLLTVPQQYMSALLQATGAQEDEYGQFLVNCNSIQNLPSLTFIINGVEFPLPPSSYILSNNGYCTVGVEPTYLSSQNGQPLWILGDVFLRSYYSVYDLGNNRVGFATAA

[4] = Solubility in aqueous buffer at pH 6.8; type: physicochemical
[5] = Volume of distribution at steady state in cannulated fed Sprague-Dawley rat at 2 mg/kg, iv; type: ADME, organism-based; design: dose 2 mg/kg, route intravenous; conditions: in vivo, read-out: Vdss
Rattus norvegicus [6] = assay: Reduction in mean arterial blood pressure in hypertensive telemetered double-transgenic rat overexpressing human renin and angiotensinogen at 6 mg/kg, po; type: functional
Rattus norvegicus [7] = assay: Reduction in mean arterial blood pressure in hypertensive telemetered double-transgenic rat overexpressing human renin and angiotensinogen at 30 mg/kg, po; type: functional

IC50 (Renin [1]): 40 nM | IC50 (Renin [2]): 30 nM | IC50 [3]: 1000 nM | IC50 (Gastricsin): > 30000 nM | solubility [4]: > 1000 µM | Vd [5]: 4.9 L/kg
SMILES: COCCCOc1cc(C(=O)N(C[C@@H]2CNC[C@H]2OC(=O)NCc2ccccc2)C(C)C)ccc1OC
Activity (Rattus norvegicus [6]): 43 mmHg | Activity (Rattus norvegicus [7]): 62 mmHg
